{"source": "patent US11192877B2", "about": "“3-(5-hydroxy-1-oxoisoindolin-2-yl)piperidine-2,6-dione derivatives and uses thereof” (Novartis AG, priority 2018, dated 2021)"}
{"molecular_target": "IKZF2 (Helios) (Homo sapiens, UniProt Q96SW2+Q9UKS7)", "sequence (Q9UKS7 whole entry)": "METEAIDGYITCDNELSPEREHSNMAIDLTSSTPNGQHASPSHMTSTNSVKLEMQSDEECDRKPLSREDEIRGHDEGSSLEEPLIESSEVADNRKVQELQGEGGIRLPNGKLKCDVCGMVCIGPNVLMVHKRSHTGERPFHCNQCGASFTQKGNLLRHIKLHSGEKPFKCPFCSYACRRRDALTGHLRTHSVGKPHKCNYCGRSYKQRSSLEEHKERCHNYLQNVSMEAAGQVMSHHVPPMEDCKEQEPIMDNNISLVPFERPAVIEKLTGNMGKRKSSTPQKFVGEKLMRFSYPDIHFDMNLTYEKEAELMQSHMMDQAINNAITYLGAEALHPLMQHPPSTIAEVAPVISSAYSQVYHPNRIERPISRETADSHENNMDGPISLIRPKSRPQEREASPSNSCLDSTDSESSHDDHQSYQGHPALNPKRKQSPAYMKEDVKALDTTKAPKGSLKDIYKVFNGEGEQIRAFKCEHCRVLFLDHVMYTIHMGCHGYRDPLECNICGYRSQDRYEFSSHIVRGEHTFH", "sequence (Q96SW2 whole entry)": "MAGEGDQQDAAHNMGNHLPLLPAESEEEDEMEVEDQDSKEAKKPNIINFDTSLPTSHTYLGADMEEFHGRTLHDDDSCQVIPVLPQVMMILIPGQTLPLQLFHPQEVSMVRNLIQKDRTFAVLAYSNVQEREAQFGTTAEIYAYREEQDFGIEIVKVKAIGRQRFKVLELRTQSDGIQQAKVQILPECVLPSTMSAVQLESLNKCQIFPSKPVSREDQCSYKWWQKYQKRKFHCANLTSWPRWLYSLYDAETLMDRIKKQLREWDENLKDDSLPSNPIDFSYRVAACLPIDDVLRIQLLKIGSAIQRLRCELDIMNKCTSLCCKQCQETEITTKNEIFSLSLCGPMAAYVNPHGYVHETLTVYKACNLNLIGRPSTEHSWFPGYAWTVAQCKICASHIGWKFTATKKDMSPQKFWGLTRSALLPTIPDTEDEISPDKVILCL", "sequence (Q16531 whole entry partner)": "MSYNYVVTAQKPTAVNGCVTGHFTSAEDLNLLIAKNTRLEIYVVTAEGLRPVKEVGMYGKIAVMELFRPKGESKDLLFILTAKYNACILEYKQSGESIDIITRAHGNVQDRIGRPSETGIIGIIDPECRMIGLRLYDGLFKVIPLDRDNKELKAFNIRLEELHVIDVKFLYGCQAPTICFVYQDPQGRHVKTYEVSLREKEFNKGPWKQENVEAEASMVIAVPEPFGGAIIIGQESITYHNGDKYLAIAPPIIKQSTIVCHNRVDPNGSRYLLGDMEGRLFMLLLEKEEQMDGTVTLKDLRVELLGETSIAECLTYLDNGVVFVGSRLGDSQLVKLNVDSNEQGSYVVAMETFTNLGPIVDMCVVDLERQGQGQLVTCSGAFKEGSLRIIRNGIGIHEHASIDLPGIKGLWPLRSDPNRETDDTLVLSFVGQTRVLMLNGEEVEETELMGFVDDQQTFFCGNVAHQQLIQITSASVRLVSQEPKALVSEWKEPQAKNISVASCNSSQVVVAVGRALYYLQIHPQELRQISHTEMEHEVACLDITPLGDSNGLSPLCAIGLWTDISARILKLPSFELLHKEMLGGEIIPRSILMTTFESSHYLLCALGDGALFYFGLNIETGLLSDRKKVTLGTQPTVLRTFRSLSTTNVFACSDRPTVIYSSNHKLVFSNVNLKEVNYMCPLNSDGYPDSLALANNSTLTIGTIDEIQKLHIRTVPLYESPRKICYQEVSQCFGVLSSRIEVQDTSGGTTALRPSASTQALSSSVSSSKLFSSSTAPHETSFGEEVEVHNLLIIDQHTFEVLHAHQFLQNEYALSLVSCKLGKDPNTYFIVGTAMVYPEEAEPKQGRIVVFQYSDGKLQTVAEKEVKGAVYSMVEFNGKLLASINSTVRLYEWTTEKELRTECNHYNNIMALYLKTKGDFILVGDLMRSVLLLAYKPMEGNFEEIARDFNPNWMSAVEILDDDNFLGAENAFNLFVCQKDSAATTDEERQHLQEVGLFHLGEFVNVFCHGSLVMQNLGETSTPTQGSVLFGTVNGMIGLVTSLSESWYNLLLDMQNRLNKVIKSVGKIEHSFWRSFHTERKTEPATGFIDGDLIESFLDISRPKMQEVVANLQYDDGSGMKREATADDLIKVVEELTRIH", "assay": "Prolabel quantification of IKZF2 protein levels in 293GT cells", "format": "cell-based", "details": "24 h, Pro-label assay, 293GT cells, 10 μM, read-out: IKZF2 % protein reduction at 10 μM, 24 h", "units": {"IKZF2 % protein reduction at 10 µM": "%"}}
{"molecule": "CC(C)CN[C@H]1CCC[C@@H]1Oc1ccc2c(c1)CN(C1CCC(=O)NC1=O)C2=O", "note": "(stereo partly drawn) [I-142, 3-(5-(((1S,2S)-2-(isobutylamino)cyclopentyl)oxy)-1-oxoisoindolin-2-yl)piperidine-2,6-dione]", "IKZF2 % protein reduction at 10 µM": 83}
{"molecule": "CCN(CC1CC(C)(C#N)C1)C1CCCC1Oc1ccc2c(c1)CN(C1CCC(=O)NC1=O)C2=O", "note": "(single isomer, unassigned) [I-164]", "IKZF2 % protein reduction at 10 µM": 71}
{"molecule": "CC1(O)CCN([C@H]2CCC[C@@H]2Oc2ccc3c(c2)CN(C2CCC(=O)NC2=O)C3=O)CC1", "note": "(stereo partly drawn) [I-138, 3-(5-(((1S,2S)-2-(4-hydroxy-4-methylpiperidin-1-yl)cyclopentyl)oxy)-1-oxoisoindolin-2-yl)piperidine-2,6-dione]", "IKZF2 % protein reduction at 10 µM": 83}
{"molecule": "O=C1CCC(N2Cc3cc(O[C@H]4CCCC[C@@H]4NCc4ccncc4)ccc3C2=O)C(=O)N1", "note": "(stereo partly drawn) [I-73, 3-(1-oxo-5-(((1S,2S)-2-((pyridin-4-ylmethyl)amino)cyclohexyl)oxy)isoindolin-2-yl)piperidine-2,6-dione]", "IKZF2 % protein reduction at 10 µM": 66}
{"molecule": "CC(C)(O)CCN[C@H]1CCCC[C@@H]1Oc1ccc2c(c1)CN(C1CCC(=O)NC1=O)C2=O", "note": "(stereo partly drawn) [I-86, 3-(5-(((1S,2S)-2-((3-hydroxy-3-methylbutyl)amino)cyclohexyl)oxy)-1-oxoisoindolin-2-yl)piperidine-2,6-dione]", "IKZF2 % protein reduction at 10 µM": 76}
{"molecule": "O=C1CCC(N2Cc3cc(O[C@H]4CCC[C@@H]4N4CCC5(CC4)OCCO5)ccc3C2=O)C(=O)N1", "note": "(stereo partly drawn) [I-17, 3-(5-(((1S,2S)-2-(1,4-dioxa-8-azaspiro[4.5]decan-8-yl)cyclopentyl)oxy)-1-oxoisoindolin-2-yl)piperidine-2,6-dione]", "IKZF2 % protein reduction at 10 µM": 80}
{"molecule": "CC1(C#N)CC(CNC2CCCCC2Oc2ccc3c(c2)CN(C2CCC(=O)NC2=O)C3=O)C1", "note": "[I-95, (1R,3s)-3-((((1S,2S)-2-((2-(2,6-dioxopiperidin-3-yl)-1-oxoisoindolin-5-yl)oxy)cyclohexyl)amino)methyl)-1-methylcyclobutane-1-carbonitrile]", "IKZF2 % protein reduction at 10 µM": 84}
{"molecule": "CC(C)(O)CN[C@H]1CCCC[C@@H]1Oc1ccc2c(c1)CN(C1CCC(=O)NC1=O)C2=O", "note": "(stereo partly drawn) [I-93, 3-(5-(((1S,2S)-2-((2-hydroxy-2-methylpropyl)amino)cyclohexyl)oxy)-1-oxoisoindolin-2-yl)piperidine-2,6-dione]", "IKZF2 % protein reduction at 10 µM": 60}
{"molecule": "C[C@@H](N[C@H]1CCCC[C@@H]1Oc1ccc2c(c1)CN(C1CCC(=O)NC1=O)C2=O)c1ccccc1", "note": "(stereo partly drawn) [I-23, 3-(1-oxo-5-(((1S,2S)-2-(((R)-1-phenylethyl)amino)cyclohexyl)oxy)isoindolin-2-yl)piperidine-2,6-dione]", "IKZF2 % protein reduction at 10 µM": 80}
{"molecule": "CCOC1CN([C@H]2CCCCC[C@@H]2Oc2ccc3c(c2)CN(C2CCC(=O)NC2=O)C3=O)C1", "note": "(stereo partly drawn) [I-55, 3-(5-(((1S,2S)-2-(3-ethoxyazetidin-1-yl)cycloheptyl)oxy)-1-oxoisoindolin-2-yl)piperidine-2,6-dione]", "IKZF2 % protein reduction at 10 µM": 91}
{"molecule": "O=C1CCC(N2Cc3cc(O[C@H]4CCCC[C@@H]4NCC4CCOCC4)ccc3C2=O)C(=O)N1", "note": "(stereo partly drawn) [I-98, 3-(1-oxo-5-(((1S,2S)-2-(((tetrahydro-2H-pyran-4-yl)methyl)amino)cyclohexyl)oxy)isoindolin-2-yl)piperidine-2,6-dione]", "IKZF2 % protein reduction at 10 µM": 80}
{"molecule": "CO[C@H]1CCC[C@@H]1N[C@H]1CCCC[C@@H]1Oc1ccc2c(c1)CN(C1CCC(=O)NC1=O)C2=O", "note": "(single isomer, unassigned) [I-119]", "IKZF2 % protein reduction at 10 µM": 59}
{"molecule": "CO[C@@H]1CCC[C@H]1N[C@H]1CCCC[C@@H]1Oc1ccc2c(c1)CN(C1CCC(=O)NC1=O)C2=O", "note": "(single isomer, unassigned) [I-118]", "IKZF2 % protein reduction at 10 µM": 67}
{"molecule": "CCN(CC)[C@H]1CCC[C@@H]1Oc1ccc2c(c1F)CN(C1CCC(=O)NC1=O)C2=O", "note": "(stereo partly drawn) [I-214, 3-(5-(((1S,2S)-2-(diethylamino)cyclopentyl)oxy)-4-fluoro-1-oxoisoindolin-2-yl)piperidine-2,6-dione]", "IKZF2 % protein reduction at 10 µM": 40}
{"molecule": "O=C1CCC(N2Cc3cc(O[C@H]4CC[C@@H]4NCc4ccccc4)ccc3C2=O)C(=O)N1", "note": "(single isomer, unassigned) [I-44]", "IKZF2 % protein reduction at 10 µM": 42}
{"molecule": "CO[C@H]1CC[C@H](CN(C)[C@H]2CCC[C@@H]2Oc2ccc3c(c2)CN(C2CCC(=O)NC2=O)C3=O)CC1", "note": "(stereo partly drawn) [I-171, 3-(5-(((1S,2S)-2-((((1R,4S)-4-methoxycyclohexyl)methyl)(methyl)amino)cyclopentyl)oxy)-1-oxoisoindolin-2-yl)piperidine-2,6-dione]", "IKZF2 % protein reduction at 10 µM": 74}
{"molecule": "O=C1CCC(N2Cc3cc(O[C@H]4CCC[C@@H]4OCc4ccccc4)ccc3C2=O)C(=O)N1", "note": "(stereo partly drawn) [I-9, 3-(5-(((1S,2S)-2-(benzyloxy)cyclopentyl)oxy)-1-oxoisoindolin-2-yl)piperidine-2,6-dione]", "IKZF2 % protein reduction at 10 µM": 0}
{"molecule": "N#CC1(CN[C@H]2CCCC[C@@H]2Oc2ccc3c(c2)CN(C2CCC(=O)NC2=O)C3=O)CCC1", "note": "(stereo partly drawn) [I-111, 1-((((1S,2S)-2-((2-(2,6-dioxopiperidin-3-yl)-1-oxoisoindolin-5-yl)oxy)cyclohexyl)amino)methyl)cyclobutane-1-carbonitrile]", "IKZF2 % protein reduction at 10 µM": 59}
{"molecule": "O=C1CCC(N2Cc3cc(O[C@H]4CCC[C@@H]4N4CC(O)C4)ccc3C2=O)C(=O)N1", "note": "(stereo partly drawn) [I-5, 3-(5-(((1S,2S)-2-(3-hydroxyazetidin-1-yl)cyclopentyl)oxy)-1-oxoisoindolin-2-yl)piperidine-2,6-dione]", "IKZF2 % protein reduction at 10 µM": 60}
{"molecule": "O=C1CCC(N2Cc3cc(OC4CCCC4N4CCC5(CCOCC5)C4)ccc3C2=O)C(=O)N1", "note": "(single isomer, unassigned) [I-183, 3-(5-((2-(8-oxa-2-azaspiro[4.5]decan-2-yl)cyclopentyl)oxy)-1-oxoisoindolin-2-yl)piperidine-2,6-dione]", "IKZF2 % protein reduction at 10 µM": 84}
{"molecule": "CCN(CCF)[C@H]1CCC[C@@H]1Oc1ccc2c(c1)CN(C1CCC(=O)NC1=O)C2=O", "note": "(stereo partly drawn) [I-24, 3-(5-(((1S,2S)-2-(ethyl(2-fluoroethyl)amino)cyclopentyl)oxy)-1-oxoisoindolin-2-yl)piperidine-2,6-dione]", "IKZF2 % protein reduction at 10 µM": 80}
{"molecule": "CO[C@H]1CC[C@H](CN[C@H]2CCCC[C@@H]2Oc2ccc3c(c2)CN(C2CCC(=O)NC2=O)C3=O)CC1", "note": "(stereo partly drawn) [I-101, 3-(5-(((1S,2S)-2-((((1r,4S)-4-methoxycyclohexyl)methyl)amino)cyclohexyl)oxy)-1-oxoisoindolin-2-yl)piperidine-2,6-dione]", "IKZF2 % protein reduction at 10 µM": 73}
{"molecule": "CC1(C#N)CCN([C@H]2CCC[C@@H]2Oc2ccc3c(c2)CN(C2CCC(=O)NC2=O)C3=O)CC1", "note": "(stereo partly drawn) [I-38, 1-((1S,2S)-2-((2-(2,6-dioxopiperidin-3-yl)-1-oxoisoindolin-5-yl)oxy)cyclopentyl)-4-methylpiperidine-4-carbonitrile]", "IKZF2 % protein reduction at 10 µM": 86}
{"molecule": "O=C1CCC(N2Cc3cc(O[C@H]4CCC[C@@H]4N4CCCC4)ccc3C2=O)C(=O)N1", "note": "(stereo partly drawn) [I-146, 3-(1-oxo-5-(((1S,2S)-2-(pyrrolidin-1-yl)cyclopentyl)oxy)isoindolin-2-yl)piperidine-2,6-dione]", "IKZF2 % protein reduction at 10 µM": 83}
{"molecule": "N[C@H]1CCC[C@@H]1Oc1cc2c(cc1F)C(=O)N(C1CCC(=O)NC1=O)C2", "note": "(stereo partly drawn) [I-215, 3-(5-(((1S,2S)-2-aminocyclopentyl)oxy)-6-fluoro-1-oxoisoindolin-2-yl)piperidine-2,6-dione]", "IKZF2 % protein reduction at 10 µM": 30}
{"molecule": "CO[C@H]1CC[C@@H](CN[C@H]2CCC[C@@H]2Oc2ccc3c(c2)CN(C2CCC(=O)NC2=O)C3=O)CC1", "note": "(stereo partly drawn) [I-191, 3-(5-(((1S,2S)-2-((((1s,4R)-4-methoxycyclohexyl)methyl)amino)cyclopentyl)oxy)-1-oxoisoindolin-2-yl)piperidine-2,6-dione]", "IKZF2 % protein reduction at 10 µM": 83}
{"molecule": "O=C1CCC(N2Cc3cc(O[C@H]4CCC[C@@H]4N4CCC(O)CC4)ccc3C2=O)C(=O)N1", "note": "(stereo partly drawn) [I-96, 3-(5-(((1S,2S)-2-(4-hydroxypiperidin-1-yl)cyclopentyl)oxy)-1-oxoisoindolin-2-yl)piperidine-2,6-dione]", "IKZF2 % protein reduction at 10 µM": 81}
{"molecule": "CCN[C@H]1CCCC[C@@H]1Oc1ccc2c(c1)CN(C1CCC(=O)NC1=O)C2=O", "note": "(stereo partly drawn) [I-79, 3-(5-(((1S,2S)-2-(ethylamino)cyclohexyl)oxy)-1-oxoisoindolin-2-yl)piperidine-2,6-dione]", "IKZF2 % protein reduction at 10 µM": 85}
{"molecule": "O=C1CCC(N2Cc3cc(O[C@H]4CCC[C@@H]4NCc4ccccn4)ccc3C2=O)C(=O)N1", "note": "(stereo partly drawn) [I-145, 3-(1-oxo-5-(((1S,2S)-2-((pyridin-2-ylmethyl)amino)cyclopentyl)oxy)isoindolin-2-yl)piperidine-2,6-dione]", "IKZF2 % protein reduction at 10 µM": 52}
{"molecule": "CC(C)n1cc(CN[C@H]2CCCC[C@@H]2Oc2ccc3c(c2)CN(C2CCC(=O)NC2=O)C3=O)cn1", "note": "(stereo partly drawn) [I-77, 3-(5-(((1S,2S)-2-(((1-isopropyl-1H-pyrazol-4-yl)methyl)amino)cyclohexyl)oxy)-1-oxoisoindolin-2-yl)piperidine-2,6-dione]", "IKZF2 % protein reduction at 10 µM": 86}
{"molecular_target": "IKZF2 (Helios) (Homo sapiens, UniProt Q96SW2+Q9UKS7)", "assay": "Prolabel quantification of IKZF2 protein levels in 293GT cells", "format": "cell-based", "details": "24 h, read-out: IKZF2 % protein reduction at 10 μM, 24 h", "units": {"IKZF2 % protein reduction at 10 µM": "%"}}
{"molecule": "N[C@H]1c2ccccc2C[C@@H]1Oc1ccc2c(c1)CN(C1CCC(=O)NC1=O)C2=O", "note": "(stereo partly drawn) [I-197, 3-(5-(((1S,2S)-1-amino-2,3-dihydro-1H-inden-2-yl)oxy)-1-oxoisoindolin-2-yl)piperidine-2,6-dione]", "IKZF2 % protein reduction at 10 µM": 68}
{"molecule": "CCn1cc(CN[C@H]2CCCC[C@@H]2Oc2ccc3c(c2)CN(C2CCC(=O)NC2=O)C3=O)cn1", "note": "(stereo partly drawn) [I-76, 3-(5-(((1S,2S)-2-(((1-ethyl-1H-pyrazol-4-yl)methyl)amino)cyclohexyl)oxy)-1-oxoisoindolin-2-yl)piperidine-2,6-dione]", "IKZF2 % protein reduction at 10 µM": 79}
{"molecule": "CCN(CC)[C@H]1c2ccccc2C[C@@H]1Oc1ccc2c(c1)CN(C1CCC(=O)NC1=O)C2=O", "note": "(stereo partly drawn) [I-199, 3-(5-(((1S,2S)-1-(diethylamino)-2,3-dihydro-1H-inden-2-yl)oxy)-1-oxoisoindolin-2-yl)piperidine-2,6-dione]", "IKZF2 % protein reduction at 10 µM": 71}
{"molecule": "CCOC1CCN([C@H]2CCC[C@@H]2Oc2ccc3c(c2)CN(C2CCC(=O)NC2=O)C3=O)CC1", "note": "(stereo partly drawn) [I-189, 3-(5-(((1S,2S)-2-(4-ethoxypiperidin-1-yl)cyclopentyl)oxy)-1-oxoisoindolin-2-yl)piperidine-2,6-dione]", "IKZF2 % protein reduction at 10 µM": 70}
{"molecular_target": "IKZF2 (Helios) (Homo sapiens, UniProt Q96SW2+Q9UKS7)", "assay": "Prolabel quantification of IKZF2 protein levels in 293GT cells", "format": "cell-based", "details": "Pro-label assay, 293GT cells, 10 μM", "units": {"IKZF2 % protein reduction at 10 μM, 24 h": "%"}}
{"molecule": "CCN(CC1CC(C)(C#N)C1)C1CCCC1Oc1ccc2c(c1)CN(C1CCC(=O)NC1=O)C2=O", "note": "(single isomer, unassigned) [I-165]", "IKZF2 % protein reduction at 10 μM, 24 h": 72}
